# In patent publication US8927598B2, “Treating oncogenic Ras driven cancers” (Duke University, priority 2008, dated 2015):
# Tests used:
# [1] = test system: pancreatic cancer cell line; test: Tumor growth in SCID-beige mice of pancreatic cancer cell lines stably infected with siRNA plasmid; format: in vivo, human; conditions: cells expressing the siRNA
# Protocol: Methods for creating stably infected cell lines are set below:
# Day 1 • Morning—split a 10 cm plate of confluent 293T/17 cells (ATCC CRL-11268) 1:6 in αMEM supplemented with 10% Fetal Calf Serum (FCS) (no antibiotics) into a 10 cm plate so as to be 40-50% confluent at time of transfection.
# Day 2 • Morning—mix in tissue culture hood in microcentrifuge tube: 12 μg pCL-10A1, 3 μg pSUPER-RETRO-PURO plasmid (OligoEngine, Seattle, Wash.) engineered to encode eNOS, RNA, NRas siRNA or HRas siRNA, and serum free media to 200 μl total volume. Tap tube side gently to mix and incubate at room temperature 15-45 minutes. Add dropwise to 293T/17 cells with micropipette and incubate overnight at 37° C.
# Day 3 • Morning—repeat transfection protocol from day 2. Once the transfection mix is added to the cells, it must be incubated for at least 8 hours. Evening—remove media and replace with 6 ml of cell specific media of cells to be infected.
# Day 4 • Morning—split a confluent 10 cm plate of pancreatic cancer cell line to be infected in cell type specific media so that they will reach 25-35% confluency the following morning.
# Day 5 • Morning—aspirate media in a 10 ml syringe, attach 0.45 μm acrodisc filter to the bottom of the syringe. Filter the media into a 15 ml conical tube. […]
# Method of testing pancreatic cancer cell line for tumor growth is set forth below: • 1. Expand pancreatic cancer cells stably infected with pSUPER-RETRO-PURO plasmid (OligoEngine) engineered to encode eNOS siRNA, NRas siRNA, or HRas siRNA to a total count of at least 1×10^7 cells/mouse, typically 4-8 15 cm tissue culture dishes at full confluency (number of dishes determined by cell size). • 2. […] Weigh each mouse for baseline reading and track tumor progression over the weeks to months by measuring large and small diameters and extrapolating tumor volume utilizing the equation: Tumor Volume=(small diameter)^2[…](large diameter/2).
# human eNOS = test: Knockdown of eNOS expression, immunoblot; format: cell-based
# Description: The siRNA of SEQ ID NO:1 is produced as follows: Complementary oligonucletides obtained from Integrated DNA Technologies (Coralville, USA) and annealed together were cloned into the Hind III and Bgl II sites of pSUPER-RETRO (OligoEngine, Seattle, Wash.). The sense strand of this insert is identified in the Sequence Listing as SEQ ID NO: 4. Transcription of this sequence by RNA polymerase produces an shRNA having the Sequence Listing as SEQ ID NO: 5. This is processed using Dicer complex to remove the hairpin to give the double stranded RNA sequence of SEQ ID NO: 1 which specifically knocks down the expression of human eNOS Exemplary dosage is 100-1600 micrograms based on a clinical trial of the siRNA compound AGN211745.
# A test for determining that eNOS expression is reduced is by immunoblot by using commercially available phosphor-S1177 eNOS antibody.
# [2] = test system: human pancreatic cell line MiaPaCa-2; test: Tumor growth of MiaPaCa-2 cells injected into SCID-beige mice given L-NAME in drinking water; format: in vivo; conditions: L-NAME 0.5 g/liter in drinking water, vs untreated drinking water
# Description: Eight SCID-beige immunocompromised mice. (The Jackson Laboratory, Bar Harbor, Me.). were each injected simultaneously with one million cells of the human pancreatic cell line MiaPaCa-2 (available from the ATCC, identified as ATCC CRL-1420). Then 4 mice were provided with drinking water supplemented with L-NAME at a concentration of 0.5 g/liter and 4 were provided with drinking water that was not supplemented. Measurements were taken at the site of the injection to calculate tumor volume. Results are shown in FIG. 1 which is a graph of Tumor Volume vs. Time in days after injection where the diamonds denote measurements on untreated mice and the triangles denote measurements on L-NAME fed mice.
# human NRas = test: Knockdown of NRas expression, immunoblot; format: cell-based
# Description: (§1) The siRNA of SEQ ID NO: 2 is produced as follows: Complementary oligonucleotides obtained from Integrated DNA Technologies (Coralville, USA) and annealed together were cloned into the Hind III and Bgl II sites of pSUPER-RETRO (OligoEngine, Seattle, Wash.). The sense strand of this insert is identified in the Sequence Listing as SEQ ID NO: 8. Transcription of this sequence by RNA polymerase produces an shRNA having the sequence identified in the Sequense Listing as SEQ ID NO: 9. This is processed using Dicer complex to remove the hairpin to give the double stranded RNA sequence of SEQ ID NO: 2 which specifically knocks down the expression of human NRas.
# A test for determining that NRas expression is reduced is by immunoblot by using commercially available NRas antibody.
# human HRas = test: Knockdown of HRas expression, immunoblot; format: cell-based
# Description: as §1, with “3” for “2”, “6.” for “8.”, “7.” for “9.”, “HRas.” for “NRas.”
# A test for determining that HRas expression is reduced is by immunoblot by using commercially available HRas antibody.
compound,measurement,setting,value
SEQ ID NO: 1: novel siRNA generated by the applicant that knocks down the expression of human eNOS (AAGAGUUAUAAGAUCCGCUUC; chemistry not given here; listed as Homo sapiens),Tumor initiation and growth of cancer cell lines in mice,[1],blocks tumor initiation and growth
same,Knockdown of expression of human eNOS,human eNOS,efficiently knocks down
"COC(=O)[C@@H](N)CCCNC(=N)N[N+](=O)[O-] [L-NAME, N^G-nitro-L-arginine methyl ester]",Tumor growth (tumor volume vs. time in days after injection),[2],Tumors grew more slowly
same,Reduction in tumor size at termination of the experiment,[2]; p<0.01,~3 fold
"SEQ ID NO: 2: novel siRNA generated by the applicant that knocks down the expression of human NRas (CAAGAAGAGUACAGUGCCAUG; listed as RNA, chemistry not given here; listed as Homo sapiens)",Knockdown of expression of NRas proteins,human NRas,efficiently knocks down
same,Tumor initiation and growth of cancer cell lines in mice,[1],inhibits tumor growth
"SEQ ID NO: 3: published siRNA (Yang, G., et al., Oncogene 22, 5694-5701 (2003)) that knocks down the expression of human HRas (GGCAAGAGUGCGCUGACCAUC; listed as RNA, chemistry not given here; listed as Homo sapiens)",Tumor initiation and growth of cancer cell lines in mice,[1],inhibits tumor growth
same,Knockdown of expression of HRas proteins,human HRas,efficiently knocks down
